Experimental data from patent US9556165B2 (priority 2012, dated 2017).
In brackets after ≈: the same amount, converted by molar mass. Where two headings read alike, the source gives them in different places.

Legend:
Assay type in all cases: cell-based
[1] = tested on: E. coli ATCC25922; experiment: MIC determination, broth microdilution (CLSI); conditions: for MIC: Escherichia coli, ATCC25922, strain 1
[2] = tested on: Bacteria; experiment: MIC determination in combination with β-lactamase inhibitors (constant 4 μg/mL)
[3] = tested on: A. baumannii ATCC15308; experiment: MIC determination, broth microdilution (CLSI); conditions: for MIC: Acinetobacter baumannii, ATCC15308, strain 9
[4] = tested on: S. pneumoniae 113; experiment: MIC determination, broth microdilution (CLSI); conditions: broth microdilution; for MIC: Streptococcus pneumoniae, 113, strain 13, read-out: MIC strain 13 (S. pneumoniae 113)
[5] = tested on: B. fragilis 6688; experiment: MIC determination, broth microdilution (CLSI); conditions: Bacteroides fragilis, 6688, strain 15; broth microdilution; read-out: MIC strain 15 (B. fragilis 6688)
[6] = tested on: E. coli J62-TEM-3; experiment: MIC determination, broth microdilution (CLSI); conditions: broth microdilution; for MIC: Escherichia coli, J62TEM3, read-out: MIC strain 18 (E. coli J62-TEM-3), strain 18
[7] = tested on: S. aureus 133; experiment: MIC determination, broth microdilution (CLSI)
[8] = tested on: E. cloacae 34654; experiment: MIC determination, broth microdilution (CLSI); conditions: for MIC: Enterobacter cloacae, 34654, strain 3
[9] = tested on: K. pneumoniae 60; experiment: MIC determination, broth microdilution (CLSI); conditions: for MIC: Klebsiella pneumoniae, 60, strain 2
[10] = tested on: C. freundii K21/3034; experiment: MIC determination, broth microdilution (CLSI); conditions: for MIC: Citrobacter freundii, K21/3034, strain 4
[11] = tested on: H. influenzae ATCC 49247; experiment: MIC determination, broth microdilution (CLSI); conditions: broth microdilution; for MIC: Haemophilus influenzae, ATCC49247, strain 12, read-out: MIC strain 12 (H. influenzae ATCC 49247)
[12] = tested on: P. aeruginosa PAO1; experiment: MIC determination, broth microdilution (CLSI); conditions: for MIC: Pseudomonas aeruginosa, PAO1, strain 6
[13] = tested on: M. morganii 126/3048; experiment: MIC determination, broth microdilution (CLSI); conditions: for MIC: Morganella morganii, 126/3048, strain 5
[14] = tested on: S. maltophilia ICB7569; experiment: MIC determination, broth microdilution (CLSI); conditions: for MIC: Stenotrophomonas maltophilia, ICB7569, strain 10
[15] = tested on: E. coli J62; experiment: MIC determination, broth microdilution (CLSI); conditions: broth microdilution; for MIC: Escherichia coli, J62, strain 17, read-out: MIC strain 17 (E. coli J62)
[16] = tested on: P. aeruginosa 2297 (AmpC wt); experiment: MIC determination, broth microdilution (CLSI); conditions: for MIC: Pseudomonas aeruginosa, strain 7
[17] = tested on: P. aeruginosa 2297-con (AmpC derepressed); experiment: MIC determination, broth microdilution (CLSI); conditions: for MIC: Pseudomonas aeruginosa, read-out: strain 8 MIC, strain 8
[18] = Staphylococcus aureus, 133, strain 11, read-out: strain 11 MIC
[19] = Staphylococcus aureus, 133, strain 14, broth microdilution, read-out: MIC strain 14 (S. aureus 133)

| Compound | MIC [1] [µg/mL] | MIC strain 19 (E. coli J62-TEM-3 + 4 μg/mL clavulanic acid) [2] [µg/mL] | MIC strain 20 (E. coli J62-TEM-3 + 4 μg/mL sulbactam) [2] [µg/mL] | MIC strain 21 (E. coli J62-TEM-3 + 4 μg/mL tazobactam) [2] [µg/mL] | MIC [3] [µg/mL] | MIC [4] [µg/mL] | MIC [6] [µg/mL] | MIC [7, 18] [µg/mL] | MIC [7, 19] [µg/mL] | MIC [8] [µg/mL] | MIC [9] [µg/mL] | MIC [10] [µg/mL] | MIC [11] [µg/mL] | MIC [12] [µg/mL] | MIC [13] [µg/mL] | MIC [14] [µg/mL] | MIC [15] [µg/mL] | MIC [16] [µg/mL] | strain 1 MIC [1] [µg/mL] | strain 8 MIC [17] [µg/mL] | other results |
| --- | --- | --- | --- | --- | --- | --- | --- | --- | --- | --- | --- | --- | --- | --- | --- | --- | --- | --- | --- | --- | --- |
| C[C@H]1[C@H](NC(=O)/C(=N\OCCOc2ccc(C(=N)NNC=O)cc2)c2csc(N)n2)C(=O)N1S(=O)(=O)O [Example 63, (2S,3S)-3-({(2Z)-2-(2-Amino-1,3-thiazol-4-yl)-2-[(2-{4-[(2-formylhydrazinyl)(imino)methyl]phenoxy}ethoxy)imino]acetyl}amino)-2-methyl-4-oxoazetidine-1-sulfonic acid] | 0.5 (≈ 0.902 µM) | 0.25 | 0.5 | 0.5 | 16 (≈ 28.9 µM) | 0.5 (≈ 0.902 µM) | 8 (≈ 14.4 µM) | 0.5 (≈ 0.902 µM) | 16 (≈ 28.9 µM) | 0.5 (≈ 0.902 µM) | 0.25 (≈ 0.451 µM) | 0.25 (≈ 0.451 µM) | 0.125 (≈ 0.225 µM) | 8 (≈ 14.4 µM) | 0.5 (≈ 0.902 µM) | 16 (≈ 28.9 µM) | 0.5 (≈ 0.902 µM) | 8 (≈ 14.4 µM) |  |  | MIC [5]: 16 µg/mL (≈ 28.9 µM) |
| CC1(C)[C@H](NC(=O)/C(=N\O[C@@H](COc2ccc(C(=N)NC3CC3N)cc2)C(=O)O)c2csc(N)n2)C(=O)N1OS(=O)(=O)O (single isomer, unassigned) [Example 100B] |  | 2 | 2 | 2 |  |  |  |  |  |  |  |  |  |  |  |  |  |  | 2 | 16 | strain 9 MIC [3]: 32 µg/mL; MIC strain 18 (E. coli J62-TEM-3) [6]: 16 µg/mL (≈ 25 µM); strain 3 MIC [8]: 4 µg/mL; strain 2 MIC [9]: 2 µg/mL; strain 4 MIC [10]: 2 µg/mL; strain 6 MIC [12]: 16 µg/mL; strain 10 MIC [14]: 32 µg/mL; MIC strain 17 (E. coli J62) [15]: 4 µg/mL (≈ 6.24 µM); strain 7 MIC [16]: 32 µg/mL |
| CC1(C)[C@H](NC(=O)/C(=N\OCCOc2ccc(C(=N)N3CCNCC3)cc2)c2csc(N)n2)C(=O)N1OS(=O)(=O)O [Example 80, (2Z)-2-(2-Amino-1,3-thiazol-4-yl)-N-[(3S)-2,2-dimethyl-4-oxo-1-(sulfooxy)azetidin-3-yl]-2-[(2-{4-[imino(piperazin-1-yl)methyl]phenoxy}ethoxy)imino]ethanamide] | 0.25 (≈ 0.409 µM) | 0.5 | 0.5 | 0.5 | 2 (≈ 3.28 µM) |  | 16 (≈ 26.2 µM) |  | 4 (≈ 6.55 µM) | 1 (≈ 1.64 µM) | 0.5 (≈ 0.819 µM) | 0.25 (≈ 0.409 µM) |  | 16 (≈ 26.2 µM) |  | 32 (≈ 52.4 µM) | 0.5 (≈ 0.819 µM) | 16 (≈ 26.2 µM) |  |  | MIC [17]: 8 µg/mL (≈ 13.1 µM) |
| C[C@H]1[C@H](NC(=O)/C(=N\OCCOc2ccc(C(=N)NN)cc2)c2csc(N)n2)C(=O)N1S(=O)(=O)O [Example 64, (2S,3S)-3-({(2Z)-2-(2-Amino-1,3-thiazol-4-yl)-2-[(2-{4-[hydrazinyl(imino)methyl]phenoxy}ethoxy)imino]acetyl}amino)-2-methyl-4-oxoazetidine-1-sulfonic acid] | 0.5 (≈ 0.95 µM) | 1 | 1 | 2 | 8 (≈ 15.2 µM) | 32 (≈ 60.8 µM) | 32 (≈ 60.8 µM) | 16 (≈ 30.4 µM) | 8 (≈ 15.2 µM) | 0.5 (≈ 0.95 µM) | 0.25 (≈ 0.475 µM) | 0.5 (≈ 0.95 µM) | 8 (≈ 15.2 µM) | 8 (≈ 15.2 µM) | 0.5 (≈ 0.95 µM) | 32 (≈ 60.8 µM) | 1 (≈ 1.9 µM) | 16 (≈ 30.4 µM) |  |  |  |
| C[C@H]1[C@H](NC(=O)/C(=N\OCCOc2cc(C(=N)N)nn2C)c2csc(N)n2)C(=O)N1S(=O)(=O)O [Example 71, (2S,3S)-3-{[(2Z)-2-(2-Amino-1,3-thiazol-4-yl)-2-({2-[(3-carbamimidoyl-1-methyl-1H-pyrazol-5-yl)oxy]ethoxy}imino)acetyl]amino}-2-methyl-4-oxoazetidine-1-sulfonic acid] | 2 (≈ 3.88 µM) | 2 | 4 | 4 | 4 (≈ 7.76 µM) | 0.5 (≈ 0.97 µM) | 32 (≈ 62.1 µM) | 0.25 (≈ 0.485 µM) |  | 4 (≈ 7.76 µM) | 1 (≈ 1.94 µM) | 1 (≈ 1.94 µM) | 1 (≈ 1.94 µM) | 16 (≈ 31 µM) | 1 (≈ 1.94 µM) | 4 (≈ 7.76 µM) | 8 (≈ 15.5 µM) | 32 (≈ 62.1 µM) |  |  | MIC [5]: 8 µg/mL (≈ 15.5 µM) |
| CC1(C)[C@H](NC(=O)/C(=N\OC(COc2ccc(C(=N)N)cc2)C(N)=O)c2csc(N)n2)C(=O)N1OS(=O)(=O)O (stereo partly drawn) [Example 75, 2-({[(1Z)-1-(2-Amino-1,3-thiazol-4-yl)-2-{[(3S)-2,2-dimethyl-4-oxo-1-(sulfooxy)azetidin-3-yl]amino}-2-oxoethylidene]amino}oxy)-3-(4-carbamimidoylphenoxy)propanamide] | 0.25 (≈ 0.428 µM) | 0.25 | 0.5 | 0.5 | 2 (≈ 3.42 µM) |  | 1 (≈ 1.71 µM) |  | 16 (≈ 27.4 µM) | 0.5 (≈ 0.855 µM) | 0.5 (≈ 0.855 µM) | 0.125 (≈ 0.214 µM) |  | 8 (≈ 13.7 µM) | 0.25 (≈ 0.428 µM) | 4 (≈ 6.84 µM) | 0.5 (≈ 0.855 µM) | 16 (≈ 27.4 µM) |  |  | MIC [17]: 8 µg/mL (≈ 13.7 µM) |
| CC1(C)[C@H](NC(=O)/C(=N\OC(COc2ccc(C(=N)NCCN)cc2)C(=O)O)c2csc(N)n2)C(=O)N1OS(=O)(=O)O (mixture of isomers) [Example 44B, (2R and 2S)-3-{4-[N-(2-Aminoethyl)carbamimidoyl]phenoxy}-2-({[(1Z)-1-(2-amino-1,3-thiazol-4-yl)-2-{[(3S)-2,2-dimethyl-4-oxo-1-(sulfooxy)azetidin-3-yl]amino}-2-oxoethylidene]amino}oxy)propanoic acid] |  | 2 | 2 | 4 |  |  |  |  |  |  |  |  |  |  |  |  |  |  | 2 | 8 | strain 9 MIC [3]: 8 µg/mL; MIC strain 13 (S. pneumoniae 113) ([4]; strain 13): 4 µg/mL; MIC strain 18 (E. coli J62-TEM-3) [6]: 4 µg/mL; strain 11 MIC ([7]; strain 11): ≦0.063 mg/L; strain 3 MIC [8]: 4 µg/mL; strain 2 MIC [9]: 1 µg/mL; strain 4 MIC [10]: 2 µg/mL; MIC strain 12 (H. influenzae ATCC 49247) ([11]; strain 12): 0.5 µg/mL; strain 6 MIC [12]: 8 µg/mL; strain 5 MIC [13]: 4 µg/mL; strain 10 MIC [14]: 16 µg/mL; MIC strain 17 (E. coli J62) [15]: 2 µg/mL; strain 7 MIC [16]: 16 µg/mL |
| CC1(C)[C@H](NC(=O)/C(=N\O[C@@H](COc2ccc(C(=N)N[C@H]3CCNC3)cc2)C(=O)O)c2csc(N)n2)C(=O)N1OS(=O)(=O)O [Example 93] | ≤ 0.063 | 0.125 | 0.125 | 0.125 | 1 (≈ 1.53 µM) |  | 4 (≈ 6.11 µM) |  | 32 (≈ 48.9 µM) | 0.125 (≈ 0.191 µM) | 0.125 (≈ 0.191 µM) | ≤ 0.063 |  | 1 (≈ 1.53 µM) |  | 4 (≈ 6.11 µM) | 0.125 (≈ 0.191 µM) | 1 (≈ 1.53 µM) |  |  | MIC [17]: 1 µg/mL (≈ 1.53 µM) |
| CC1(C)[C@H](NC(=O)/C(=N\OC(CO)COc2ccc(C(=N)N)cc2)c2csc(N)n2)C(=O)N1OS(=O)(=O)O (mixture of isomers) [Example 45A, (2Z)-2-(2-Amino-1,3-thiazol-4-yl)-2-({[(2R and 2S)-1-(4-carbamimidoylphenoxy)-3-hydroxypropan-2-yl]oxy}imino)-N-[(3S)-2,2-dimethyl-4-oxo-1-(sulfooxy)azetidin-3-yl]ethanamide] |  | 0.5 | 0.5 | 0.5 | 2 |  |  |  | 8 |  |  |  |  | 8 |  |  |  | 16 | 0.5 | 8 | MIC strain 18 (E. coli J62-TEM-3) [6]: 1 µg/mL; strain 3 MIC [8]: 1 µg/mL; strain 2 MIC [9]: 0.5 µg/mL; strain 4 MIC [10]: 0.25 µg/mL; strain 5 MIC [13]: 0.5 µg/mL; strain 10 MIC [14]: 8 µg/mL; MIC strain 17 (E. coli J62) [15]: 0.5 µg/mL |
